Measurements taken from the NIST ThermoML archive (doi:10.1021/je5010214).
± gives the expanded uncertainty stated by the source.

Conditions: Liquid, Vibrating tube method

CCCCO [butan-1-ol]
Conditions	mass density [kg/m3]
283.15 K, 267.6 kPa	817.937 ± 0.81
283.15 K, 550.8 kPa	818.14 ± 0.81
283.15 K, 878.6 kPa	818.388 ± 0.81
283.15 K, 991.3 kPa	818.415 ± 0.81
283.15 K, 2020.2 kPa	819.134 ± 0.81
283.15 K, 2914.8 kPa	819.722 ± 0.81
283.15 K, 4946.5 kPa	821.145 ± 0.81
283.15 K, 7034.8 kPa	822.538 ± 0.81
283.15 K, 9021.6 kPa	823.807 ± 0.81
283.15 K, 9991.9 kPa	824.485 ± 0.81
283.15 K, 11959 kPa	825.705 ± 0.82
283.15 K, 15011 kPa	827.609 ± 0.82
283.15 K, 18047 kPa	829.455 ± 0.82
283.15 K, 20045 kPa	830.642 ± 0.83
283.15 K, 22057 kPa	831.928 ± 0.83
283.15 K, 25044 kPa	833.615 ± 0.83
283.15 K, 28046 kPa	835.368 ± 0.84
283.15 K, 30052 kPa	836.501 ± 0.84
283.15 K, 32970 kPa	838.092 ± 0.85
283.15 K, 32971 kPa	838.117 ± 0.85
283.15 K, 34017 kPa	838.557 ± 0.85
283.15 K, 34960 kPa	839.141 ± 0.85
283.15 K, 37943 kPa	840.737 ± 0.85
283.15 K, 40004 kPa	841.811 ± 0.86
283.15 K, 42058 kPa	842.896 ± 0.86
283.15 K, 44940 kPa	844.325 ± 0.87
283.15 K, 48022 kPa	845.954 ± 0.87
283.15 K, 49996 kPa	846.902 ± 0.88
283.15 K, 51982 kPa	847.942 ± 0.88
283.15 K, 54965 kPa	849.358 ± 0.88
283.15 K, 57949 kPa	850.826 ± 0.89
283.15 K, 59996 kPa	851.847 ± 0.89
283.15 K, 62025 kPa	852.74 ± 0.9
283.15 K, 64998 kPa	854.215 ± 0.9
283.16 K, 101.2 kPa	817.825 ± 0.81
283.16 K, 65971 kPa	854.69 ± 0.9
288.15 K, 78.5 kPa	813.612 ± 0.81
288.15 K, 391.3 kPa	813.84 ± 0.81
288.15 K, 554.4 kPa	813.953 ± 0.81
288.15 K, 882.7 kPa	814.204 ± 0.81
288.15 K, 989.1 kPa	814.282 ± 0.81
288.15 K, 2057.5 kPa	815.033 ± 0.81
288.15 K, 2917.8 kPa	815.651 ± 0.81
288.15 K, 5041.4 kPa	817.16 ± 0.81
288.15 K, 7088.8 kPa	818.541 ± 0.81
288.15 K, 9018.6 kPa	819.847 ± 0.81
288.15 K, 10040 kPa	820.583 ± 0.81
288.15 K, 12072 kPa	821.91 ± 0.82
288.15 K, 15001 kPa	823.877 ± 0.82
288.15 K, 17968 kPa	825.72 ± 0.82
288.15 K, 20068 kPa	826.976 ± 0.83
288.15 K, 20693 kPa	827.38 ± 0.83
288.15 K, 22020 kPa	828.211 ± 0.83
288.15 K, 25002 kPa	829.984 ± 0.83
288.15 K, 28026 kPa	831.832 ± 0.84
288.15 K, 30035 kPa	832.896 ± 0.84
288.15 K, 32084 kPa	834.074 ± 0.85
288.15 K, 33050 kPa	834.714 ± 0.85
288.15 K, 34036 kPa	835.152 ± 0.85
288.15 K, 35077 kPa	835.674 ± 0.85
288.15 K, 37993 kPa	837.311 ± 0.86
288.15 K, 40041 kPa	838.449 ± 0.86
288.15 K, 42023 kPa	839.459 ± 0.86
288.15 K, 44979 kPa	841.064 ± 0.87
288.15 K, 48045 kPa	842.655 ± 0.87
288.15 K, 50068 kPa	843.734 ± 0.88
288.15 K, 52032 kPa	844.696 ± 0.88
288.15 K, 55077 kPa	846.251 ± 0.89
288.15 K, 58004 kPa	847.666 ± 0.89
288.15 K, 59988 kPa	848.618 ± 0.9
288.15 K, 61974 kPa	849.542 ± 0.9
288.15 K, 64942 kPa	850.93 ± 0.91
288.15 K, 66025 kPa	851.488 ± 0.91
293.15 K, 91.1 kPa	810.528 ± 0.81
293.15 K, 825.1 kPa	811.053 ± 0.81
293.15 K, 1971.7 kPa	811.916 ± 0.81
293.15 K, 3060.6 kPa	812.72 ± 0.81
293.15 K, 5011 kPa	814.074 ± 0.81
293.15 K, 9042.1 kPa	816.992 ± 0.81
293.15 K, 10036 kPa	817.626 ± 0.82
293.15 K, 11947 kPa	818.963 ± 0.82
293.15 K, 14941 kPa	820.924 ± 0.82
293.15 K, 21987 kPa	825.417 ± 0.83
293.15 K, 27986 kPa	829.06 ± 0.84
293.15 K, 28066 kPa	829.163 ± 0.84
293.15 K, 33151 kPa	832.036 ± 0.85
293.15 K, 34099 kPa	832.526 ± 0.85
293.15 K, 35000 kPa	833.078 ± 0.85
293.15 K, 40081 kPa	835.959 ± 0.86
293.15 K, 42099 kPa	837.008 ± 0.86
293.15 K, 45068 kPa	838.658 ± 0.87
293.15 K, 54966 kPa	843.81 ± 0.89
293.15 K, 58072 kPa	845.282 ± 0.9
293.15 K, 66045 kPa	849.224 ± 0.91
293.16 K, 305.2 kPa	810.686 ± 0.81
293.16 K, 476.4 kPa	810.81 ± 0.81
293.16 K, 1045.2 kPa	811.221 ± 0.81
293.16 K, 7096.8 kPa	815.616 ± 0.81
293.16 K, 17889 kPa	822.832 ± 0.83
293.16 K, 19992 kPa	824.147 ± 0.83
293.16 K, 24983 kPa	827.251 ± 0.84
293.16 K, 29976 kPa	830.11 ± 0.84
293.16 K, 32232 kPa	831.521 ± 0.85
293.16 K, 38027 kPa	834.783 ± 0.86
293.16 K, 48022 kPa	840.192 ± 0.88
293.16 K, 50085 kPa	841.31 ± 0.88
293.16 K, 52032 kPa	842.308 ± 0.88
293.16 K, 60018 kPa	846.257 ± 0.9
293.16 K, 61962 kPa	847.209 ± 0.9
293.16 K, 64991 kPa	848.649 ± 0.91
298.15 K, 98.1 kPa	806.282 ± 0.81
298.15 K, 305.4 kPa	806.45 ± 0.81
298.15 K, 854.5 kPa	806.874 ± 0.81
298.15 K, 1980.9 kPa	807.747 ± 0.81
298.15 K, 3167.8 kPa	808.637 ± 0.81
298.15 K, 5067.6 kPa	810.04 ± 0.81
298.15 K, 7065.3 kPa	811.55 ± 0.81
298.15 K, 10107 kPa	813.67 ± 0.82
298.15 K, 20128 kPa	820.445 ± 0.83
298.15 K, 22004 kPa	821.641 ± 0.83
298.15 K, 25081 kPa	823.55 ± 0.84
298.15 K, 33113 kPa	828.365 ± 0.85
298.15 K, 33924 kPa	828.845 ± 0.85
298.15 K, 38097 kPa	831.213 ± 0.86
298.15 K, 40161 kPa	832.357 ± 0.86
298.15 K, 42029 kPa	833.462 ± 0.87
298.15 K, 42359 kPa	833.614 ± 0.87
298.15 K, 45021 kPa	835.052 ± 0.87
298.15 K, 48107 kPa	836.745 ± 0.88
298.15 K, 50068 kPa	837.797 ± 0.88
298.15 K, 55016 kPa	840.375 ± 0.89
298.15 K, 57931 kPa	841.819 ± 0.9
298.15 K, 59914 kPa	842.826 ± 0.9
298.15 K, 62036 kPa	843.934 ± 0.91
298.15 K, 65018 kPa	845.412 ± 0.91
298.16 K, 493.7 kPa	806.599 ± 0.81
298.16 K, 1012.6 kPa	806.992 ± 0.81
298.16 K, 9120.9 kPa	813.012 ± 0.81
298.16 K, 11970 kPa	814.957 ± 0.82
298.16 K, 15220 kPa	817.234 ± 0.82
298.16 K, 17984 kPa	819.076 ± 0.83
298.16 K, 28040 kPa	825.42 ± 0.84
298.16 K, 30089 kPa	826.686 ± 0.85
298.16 K, 32030 kPa	827.814 ± 0.85
298.16 K, 35217 kPa	829.575 ± 0.85
298.16 K, 52020 kPa	838.835 ± 0.89
298.16 K, 66118 kPa	845.919 ± 0.92
303.15 K, 304.1 kPa	802.278 ± 0.81
303.15 K, 498.9 kPa	802.435 ± 0.81
303.15 K, 900.6 kPa	802.733 ± 0.81
303.15 K, 979.1 kPa	802.787 ± 0.81
303.15 K, 1977.6 kPa	803.554 ± 0.81
303.15 K, 4930.4 kPa	805.792 ± 0.81
303.15 K, 11975 kPa	810.901 ± 0.82
303.15 K, 15044 kPa	812.956 ± 0.82
303.15 K, 19974 kPa	816.207 ± 0.83
